Results published in publication PMC12150326 (The Journal of Organic Chemistry, 2025).

What was measured:
Type in all cases: cell-based, human
786-0 = system: 786-0
Procedure, shortened: (§1)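 First, compounds went into the NCI-60 cell panel. Next, they were dosed at 0.01, 0.1, 1, 10 and 100 μM. Finally, TGI levels fed a COMPARE analysis against prior tubulin-inhibitor data.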

A549/ATCC = system: A549/ATCC
Procedure, shortened: as §1

COLO 205 = system: COLO 205
Procedure, shortened: as §1

EKVX = system: EKVX
Procedure, shortened: (§2)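 Compounds were tested in the NCI 60-cell-line panel at five concentrations: 100 μM, 10 μM, 1 μM, 0.1 μM and 0.01 μM. For COMPARE analysis, TGI response levels were matched against those of established tubulin inhibitors previously run in the same screen.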

HL-60(TB) = system: HL-60(TB)
Procedure, shortened: (§3)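 Tested in five doses (top 100 μM, lowest 0.01 μM) within the 60 Cell Screen; COMPARE used TGI responses relative to known tubulin inhibitors.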

HOP-62 = system: HOP-62
Procedure, shortened: as §2

HOP-92 = system: HOP-92
Procedure, shortened: as §1

HS 578T = system: HS 578T
Procedure, shortened: as §1

IGROV1 = system: IGROV1
Procedure, shortened: as §1

K-562 = system: K-562
Procedure, shortened: as §1

LOX IMVI = system: LOX IMVI
Procedure, shortened: as §2

MALME-3M = system: MALME-3M
Procedure, shortened: as §1

MDA-MB-231/ATCC = system: MDA-MB-231/ATCC
Procedure, shortened: as §1

MDA-MB-435 = system: MDA-MB-435
Procedure, shortened: as §2

MOLT-4 = system: MOLT-4
Procedure, shortened: as §1

NCI-H460 = system: NCI-H460
Procedure, shortened: as §1

NCI-H522 = system: NCI-H522
Procedure, shortened: as §1

OVCAR-8 = system: OVCAR-8
Procedure, shortened: as §1

PC-3 = system: PC-3
Procedure, shortened: as §2

RPMI-8226 = system: RPMI-8226
Procedure, shortened: as §1

SK-MEL-5 = system: SK-MEL-5
Procedure, shortened: as §1

SN12C = system: SN12C
Procedure, shortened: as §1

SNB-19 = system: SNB-19
Procedure, shortened: as §2

SNB-75 = system: SNB-75
Procedure, shortened: as §1

SR = system: SR
Procedure, shortened: as §3

T-47D = system: T-47D
Procedure, shortened: as §1

TK-10 = system: TK-10
Procedure, shortened: as §2

UACC-62 = system: UACC-62
Procedure, shortened: as §2

For `COc1cc(C)c(-c2ccc(=O)c(OC)cc2C)c(OC)c1OC` (single isomer, unassigned) [(aR)-iso-6], the Log10GI50 (786-0) was over -4.00 Molar, the Log10LC50 (786-0) was over -4.00 Molar and the Log10TGI (786-0) was over -4.00 Molar. For the same compound, the Log10GI50 (A549/ATCC) was over -4.00 Molar, the Log10LC50 (A549/ATCC) was over -4.00 Molar and the Log10TGI (A549/ATCC) was over -4.00 Molar. It also gave a Log10GI50 (COLO 205) of over -4.00 Molar, a Log10LC50 (COLO 205) of over -4.00 Molar and a Log10TGI (COLO 205) of over -4.00 Molar. For the same compound, the Log10GI50 (EKVX) was over -4.00 Molar, the Log10LC50 (EKVX) was over -4.00 Molar and the Log10TGI (EKVX) was over -4.00 Molar. The Log10GI50 (HL-60(TB)) was over -4.00 Molar, the Log10LC50 (HL-60(TB)) was over -4.00 Molar and the Log10TGI (HL-60(TB)) was over -4.00 Molar. The Log10GI50 (HOP-62) was over -4.00 Molar, the Log10LC50 (HOP-62) was over -4.00 Molar and the Log10TGI (HOP-62) was over -4.00 Molar. The Log10GI50 (HOP-92) was over -4.00 Molar, the Log10LC50 (HOP-92) was over -4.00 Molar and the Log10TGI (HOP-92) was over -4.00 Molar. It also gave a Log10GI50 (HS 578T) of over -4.00 Molar, a Log10LC50 (HS 578T) of over -4.00 Molar and a Log10TGI (HS 578T) of over -4.00 Molar. For the same compound, the Log10GI50 (IGROV1) was over -4.00 Molar, the Log10LC50 (IGROV1) was over -4.00 Molar and the Log10TGI (IGROV1) was over -4.00 Molar. The Log10GI50 (K-562) was over -4.00 Molar, the Log10LC50 (K-562) was over -4.00 Molar and the Log10TGI (K-562) was over -4.00 Molar. The Log10GI50 (LOX IMVI) was over -4.00 Molar, the Log10LC50 (LOX IMVI) was over -4.00 Molar and the Log10TGI (LOX IMVI) was over -4.00 Molar. It also gave a Log10GI50 (MALME-3M) of over -4.00 Molar, a Log10LC50 (MALME-3M) of over -4.00 Molar and a Log10TGI (MALME-3M) of over -4.00 Molar. For the same compound, the Log10GI50 (MDA-MB-231/ATCC) was over -4.00 Molar, the Log10LC50 (MDA-MB-231/ATCC) was over -4.00 Molar and the Log10TGI (MDA-MB-231/ATCC) was over -4.00 Molar. It also gave a Log10GI50 (MDA-MB-435) of over -4.00 Molar, a Log10LC50 (MDA-MB-435) of over -4.00 Molar and a Log10TGI (MDA-MB-435) of over -4.00 Molar. The Log10GI50 (MOLT-4) was over -4.00 Molar, the Log10LC50 (MOLT-4) was over -4.00 Molar and the Log10TGI (MOLT-4) was over -4.00 Molar. It also gave a Log10GI50 (NCI-H460) of over -4.00 Molar, a Log10LC50 (NCI-H460) of over -4.00 Molar and a Log10TGI (NCI-H460) of over -4.00 Molar. It also gave a Log10GI50 (NCI-H522) of over -4.00 Molar, a Log10LC50 (NCI-H522) of over -4.00 Molar and a Log10TGI (NCI-H522) of over -4.00 Molar. The Log10GI50 (OVCAR-8) was over -4.00 Molar, the Log10LC50 (OVCAR-8) was over -4.00 Molar and the Log10TGI (OVCAR-8) was over -4.00 Molar. The Log10GI50 (PC-3) was over -4.00 Molar, the Log10LC50 (PC-3) was over -4.00 Molar and the Log10TGI (PC-3) was over -4.00 Molar. The Log10GI50 (RPMI-8226) was over -4.00 Molar, the Log10LC50 (RPMI-8226) was over -4.00 Molar and the Log10TGI (RPMI-8226) was over -4.00 Molar. The Log10GI50 (SK-MEL-5) was over -4.00 Molar, the Log10LC50 (SK-MEL-5) was over -4.00 Molar and the Log10TGI (SK-MEL-5) was over -4.00 Molar. It also gave a Log10GI50 (SN12C) of over -4.00 Molar, a Log10LC50 (SN12C) of over -4.00 Molar and a Log10TGI (SN12C) of over -4.00 Molar. The Log10GI50 (SNB-19) was over -4.00 Molar, the Log10LC50 (SNB-19) was over -4.00 Molar and the Log10TGI (SNB-19) was over -4.00 Molar. It also gave a Log10GI50 (SNB-75) of -4.40 Molar, a Log10LC50 (SNB-75) of over -4.00 Molar and a Log10TGI (SNB-75) of over -4.00 Molar. It also gave a Log10GI50 (SR) of over -4.00 Molar, a Log10LC50 (SR) of over -4.00 Molar and a Log10TGI (SR) of over -4.00 Molar. It also gave a Log10GI50 (T-47D) of over -4.00 Molar, a Log10LC50 (T-47D) of over -4.00 Molar and a Log10TGI (T-47D) of over -4.00 Molar. It also gave a Log10GI50 (TK-10) of over -4.00 Molar, a Log10LC50 (TK-10) of over -4.00 Molar and a Log10TGI (TK-10) of over -4.00 Molar. For the same compound, the Log10GI50 (UACC-62) was over -4.00 Molar, the Log10LC50 (UACC-62) was over -4.00 Molar and the Log10TGI (UACC-62) was over -4.00 Molar.
